# Experimental data: the OligoGym collection
# Bases are written 5' to 3'; sugars and linkages follow in the same order, as letters with counts (s phosphorothioate, o phosphodiester; PS: all linkages phosphorothioate). The collection does not say whether C is 5-methylated. l = locked nucleic acid (LNA); d = 2'-deoxy (DNA)
# Biological target: Tau
# Test: rat primary cortical neurons, FLIPR, 25 uM ASO
row,Sequence,calcium oscillation score
1,"CCTCTTCCACTACAAG (sugars l2 d12 l2, PS)",57.8 % of control
2,"GCGCAGGCGCGAGCAG (sugars l3 d10 l3, PS)",0 % of control
3,"TTATTTCCAAATTCACTTTT (sugars lldldlddddddddddllll, PS)",88.8 % of control
4,"CTCTCTGCATATATAAT (sugars l4 d9 l4, PS)",72.2 % of control
5,"CCTTTGAAAGTCCTTT (sugars l4 d8 l4, PS)",106 % of control
6,"TTATTTCCAAATTCACTTTT (sugars ldlllddddddddddlldll, PS)",70.3 % of control
7,"CTTCAGGTCTGGCATGGGCA (sugars l3 d14 l3, PS)",0 % of control
8,"CTCCTAATTTTGCACTCA (sugars l3 d13 l2, PS)",50.5 % of control
9,"GCCCACCCATCAATTTGGAA (sugars l3 d14 l3, PS)",1.3 % of control
10,"CCTCCTAGAACACAACA (sugars l3 d12 l2, PS)",57 % of control
11,"CCCTCCCTTTAATGCCAGGC (sugars l3 d14 l3, PS)",6.04 % of control
12,"GCACCAGGAACCTTCCAGAA (sugars l3 d14 l3, PS)",12.8 % of control
13,"CCAAACTTTTACTCTGA (sugars l4 d10 l3, PS)",44.5 % of control
14,"AATTATTAAATCTTCTCTTA (sugars l4 d12 l4, PS)",62.6 % of control
15,"TCCAAAGCATCAAATCC (sugars l3 d11 l3, PS)",85.5 % of control
16,"GATCTTAGGCTGGCCC (sugars l3 d10 l3, PS)",90.7 % of control
17,"CATCAATTTGGAAAGATGAA (sugars l3 d14 l3, PS)",62.5 % of control
18,"TTACTTTCTACTCAATTCCA (sugars l3 d15 l2, PS)",60.6 % of control
19,"GCGTGATCTTCCAT (sugars l3 d8 l3, PS)",182 % of control
20,"ACTTAAAATTTTTCTTATT (sugars l4 d11 l4, PS)",75.1 % of control
21,"CCCGTCTTTGCTTTTACTGA (sugars l3 d14 l3, PS)",0 % of control
22,"CCACCCATCAATTTGGAAAG (sugars l3 d14 l3, PS)",58.1 % of control

row,Sequence,calcium oscillation score
1,"TATTTCCAAATTCACTTTTA (sugars ldlllddddddddddlldll, PS)",145 % of control
2,"TTTATTTCCAAATTCACTTT (sugars l3 d14 l3, PS)",≥ 200 % of control
3,"AATTAACATATTTTTACCT (sugars l4 d11 l4, PS)",75.1 % of control
4,"CCATTTTCACTGTTCACA (sugars l2 d14 l2, PS)",86.3 % of control
5,"ACCCATCTTAATTCATTTAA (sugars l3 d14 l3, PS)",96.1 % of control
6,"CTAATTCCCAAATTCCTCA (sugars l2 d14 l3, PS)",62.1 % of control
7,"CCCGCCTTTAGTGATT (sugars l3 d10 l3, PS)",30.9 % of control
8,"AAAACATTCTCACCAAACCC (sugars l4 d14 l2, PS)",83.5 % of control
9,"GGTTAAGTGATTAACCAATT (sugars l3 d14 l3, PS)",157 % of control
10,"TTTTTCTCTCTTAACTTTA (sugars l4 d11 l4, PS)",83.6 % of control
11,"ATTTCCAAATTCACTTTTAC (sugars l2 d16 l2, PS)",≥ 200 % of control
12,"GAGAGACCACATTATCATCC (sugars l3 d14 l3, PS)",96.7 % of control
13,"CTCTTCAAATCATTCAA (sugars l4 d9 l4, PS)",68.4 % of control
14,"TCTTCATTCTTGCCCA (sugars l2 d12 l2, PS)",38.1 % of control
15,"TGACCTCAACTCTACC (sugars l4 d10 l2, PS)",68.5 % of control
16,"ATCCTTCTAAGTACAA (sugars l4 d8 l4, PS)",85.6 % of control
17,"CAGTAACATCCATTTC (sugars l4 d8 l4, PS)",87.6 % of control
18,"GCATGATTGTGGGCTT (sugars l3 d10 l3, PS)",47.4 % of control
19,"TCAAATCAATTCTCATTTCA (sugars l3 d13 l4, PS)",62 % of control
20,"GACGTTGCTAAGATCC (sugars l3 d10 l3, PS)",22.6 % of control
21,"CTTTTTCTTGTTCTAAC (sugars l2 d11 l4, PS)",57.9 % of control
22,"CTTAGTCATCTTCCCTC (sugars l2 d13 l2, PS)",92.4 % of control

row,Sequence,calcium oscillation score
1,"CCTAAAGTCCCAGGTC (sugars l3 d10 l3, PS)",62.9 % of control
2,"CCATCAGTCTTATCTCC (sugars l1 d14 l2, PS)",52.9 % of control
3,"TGGCTTTGGCGTTCTC (sugars l3 d10 l3, PS)",28.7 % of control
4,"CGCCCCACTTTTAATTA (sugars l2 d12 l3, PS)",77.2 % of control
5,"CCATCACTTCGAACTC (sugars l3 d10 l3, PS)",≥ 200 % of control
6,"CCCTGAAACCATTAAC (sugars l3 d9 l4, PS)",70.2 % of control
7,"CCACCCTAACACAATCA (sugars l2 d12 l3, PS)",94 % of control
8,"ACAGCCTCATAAACCTA (sugars l3 d11 l3, PS)",59.4 % of control
9,"TATTGAACTCACCCACTC (sugars l2 d13 l3, PS)",69 % of control
10,"AATCCTGTGCTTCAG (sugars l3 d9 l3, PS)",57.5 % of control
11,"CCGAACTGCGAGGAGC (sugars l3 d10 l3, PS)",5.43 % of control
12,"CACTCTGATACTATTAT (sugars l4 d9 l4, PS)",69 % of control
13,"GTGGCGGTGACTGCGA (sugars l3 d10 l3, PS)",62.6 % of control
14,"ATATTGTCCAGGGACCCAAT (sugars l3 d14 l3, PS)",19.9 % of control
15,"TTGTAGACTATTTGCACACT (sugars l3 d14 l3, PS)",40.7 % of control
16,"ACTTTATTTCCAAATTCACTTTTAC (sugars lldlddddddddddddddddldlll, PS)",35.4 % of control
17,"ATCAGCCTTCATCACACT (sugars l4 d12 l2, PS)",87.7 % of control
18,"GATTTTACTACTCTCTT (sugars l4 d9 l4, PS)",85.5 % of control
19,"GCCATATTTCAACTCTT (sugars l2 d11 l4, PS)",57.7 % of control
20,"CGACTTATCTATCCATC (sugars l4 d10 l3, PS)",50.5 % of control
21,"CATAAATGACTATACTTATT (sugars l3 d14 l3, PS)",94.7 % of control
22,"CCTCCACCCTTACACA (sugars l1 d13 l2, PS)",58.9 % of control

row,Sequence,calcium oscillation score
1,"TCATCTTTTCTAGAACCC (sugars l3 d13 l2, PS)",48.4 % of control
2,"TCCTCCATTGTAACTACT (sugars l2 d14 l2, PS)",59.4 % of control
3,"GTCCTCACTTTACACATT (sugars l3 d13 l2, PS)",41 % of control
4,"TCTCGCGGAAGGTC (sugars l3 d8 l3, PS)",75.7 % of control
5,"CATCCACTTAGACACTC (sugars l4 d11 l2, PS)",43.8 % of control
6,"TTTTTATTCATAACTTTTCA (sugars l4 d12 l4, PS)",56.4 % of control
7,"ACTAGCCCACCCATCAATTT (sugars l3 d14 l3, PS)",12.9 % of control
8,"ATTCCTTTCAATGACCA (sugars l4 d11 l2, PS)",49.7 % of control
9,"TCAATTTGGAAAGATGAAAT (sugars l3 d14 l3, PS)",0 % of control
10,"AACTCATCAACACCTTTTAA (sugars l3 d13 l4, PS)",70.8 % of control
11,"TATTTATTCTTTTTATTATT (sugars l4 d12 l4, PS)",58.6 % of control
12,"TCGCTTCCAGTCCCGT (sugars l3 d10 l3, PS)",110 % of control
13,"ATCAATTCTCATTTCAACCT (sugars l3 d15 l2, PS)",70.7 % of control
14,"ACCTCTTAGTCATCTTCC (sugars l2 d13 l3, PS)",74.4 % of control
15,"GTTGGATCAGAGGGTC (sugars l3 d10 l3, PS)",22.2 % of control
16,"CCACTGGCGACTTGTACACG (sugars l3 d14 l3, PS)",16.8 % of control
17,"CTTTGAGTTGAGGGAC (sugars l3 d10 l3, PS)",29.1 % of control
18,"GTTTTCAAACACACCTT (sugars l3 d10 l4, PS)",104 % of control
19,"CATGTCGATGCTGCC (sugars l3 d9 l3, PS)",89.5 % of control
20,"TGGGTGATATTGTCCAGGGA (sugars l3 d14 l3, PS)",0 % of control
21,"ATGTCGATGCTGCC (sugars l3 d8 l3, PS)",137 % of control
22,"CTAAAGTCCCAGGTC (sugars l3 d9 l3, PS)",40.5 % of control

row,Sequence,calcium oscillation score
1,"CCCAGCGTGATCTTCCATCA (sugars ldlllddddddddddlldll, PS)",124 % of control
2,"TCTTCACATCCCAACTA (sugars l2 d12 l3, PS)",126 % of control
3,"ACAAACCAGTTACCATC (sugars l3 d10 l4, PS)",87.7 % of control
4,"ATTTATTCTTTTTATTATTT (sugars l4 d12 l4, PS)",59.6 % of control
5,"GTCTCAAATCAAACTA (sugars l4 d8 l4, PS)",60.6 % of control
6,"AGAATATTACACCATC (sugars l4 d8 l4, PS)",102 % of control
7,"TTTATTTCCAAATTCACTTT (sugars l4 d11 l5, PS)",138 % of control
8,"CCTTTTCTACTCTACTC (sugars l3 d12 l2, PS)",70.9 % of control
9,"TTACTGATCATAATCCT (sugars l4 d10 l3, PS)",67.3 % of control
10,"CGTTCTCGCGGAAGGT (sugars l3 d10 l3, PS)",13 % of control
11,"CTTTTTCTTGTTCTAACC (sugars l3 d11 l4, PS)",62.3 % of control
12,"AGCATCAGAGGTTTCA (sugars l3 d10 l3, PS)",0 % of control
13,"AATTTGGAAAGATGAAATTT (sugars l3 d14 l3, PS)",0 % of control
14,"AAGCAGGTTAAGTGATTAAC (sugars l3 d14 l3, PS)",12.9 % of control
15,"GTCATCGCTTCCAGTC (sugars l3 d10 l3, PS)",85.7 % of control
16,"CAGGAGTTGTAAGC (sugars l3 d8 l3, PS)",77.5 % of control
17,"GAAAACCATCAACCAC (sugars l4 d8 l4, PS)",44.3 % of control
18,"CCTCCTGGTTTATGATGGAT (sugars l3 d14 l3, PS)",58.3 % of control
19,"CTAAGCACTTTACCCATC (sugars l3 d13 l2, PS)",97.6 % of control
20,"TATTGTCCAGGGACCCAATC (sugars l3 d14 l3, PS)",33.2 % of control
